Measured values taken from PubChem BioAssay AID179 (DTP/NCI, 2004).
pEC50, pIC50: −log10 of the molar value. Activity calls are given as the source filed them.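 The calls were made as follows: active = compounds giving half or more protection of infected cells from virus-caused growth loss, again on retest; inactive = the rest.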

Test system: CEM cells HIV-1 protection, formazan growth assay
Assay: NCI AIDS Antiviral Assay
Settings: for pIC50: measured here: growth of uninfected CEM cells
Summary of the method: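 Human CEM cells, uninfected and HIV-1-infected, received five drug concentrations, and growth was read by soluble formazan assay. Compounds giving at least 50% protection were retested; reproducible 100% protection defined confirmed active.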

SMILES | pEC50 | pIC50 | outcome
Nc1nc([O-])c([I+]c2ccccc2)c(=O)[nH]1 | < 3.70 | < 3.70 | 
N#Cc1c2nc3ccccc3nc2n2ccccc12 | < 4.39 | < 4.39 | 
Cc1cccc(C2SCc3nc4ccccc4n32)c1 (stereo unspecified) |  |  | inactive
CC(=O)OCC1OC(n2cc(C(F)(F)F)c(=O)[nH]c2=O)CC1OC(C)=O (stereo unspecified) | < 3.70 | 5.61 | 
CCCCCCC(=O)C/C(=N/NC(N)=S)C(=O)NC1C2CC3CC(C2)CC1C3 (stereo unspecified) | < 3.66 | < 3.66 | 
Cc1ccccc1S(=O)(=O)N1CCN(S(=O)(=O)c2ccccc2C)CC1 | < 3.70 | < 3.70 | 
O=C(O)c1ccc(CS(=O)c2ccc([N+](=O)[O-])cc2)c([N+](=O)[O-])c1 (stereo unspecified) | < 3.15 | 3.30 | 
CC(C(=O)O)[S+]1CCOCC1 (stereo unspecified) | 7.20 | < 3.70 | 
CCCCN(C)C(=O)COc1cc2c(O)c3c(O)c(C)c4c(c13)C(=O)C(C)(O/C=C/C(OC)C(C)C(OC(C)=O)C(C)C(O)C(C)C(O)C(C)/C=C/C=C(\C)C(=O)N2)O4 (stereo unspecified) | 4.55 | 4.54 | 
CSCC(NP1(=O)SC(NN=C(C)C)=NC1(C)C)C(=O)O (stereo unspecified) | < 3.15 | < 3.15 | 
CC1(C)C/C(=N/O)c2c(nc3ccc4ccccc4c3c2-c2ccc(Cl)cc2)C1 | < 4.00 | 4.43 | 
CC(=O)NCCC1CNc2ccccc21 (stereo unspecified) | < 3.70 | < 3.70 | 
Cc1c(Cc2ccccc2)n(C(C)OCCN2C(=O)C=CC2=O)c(=O)[nH]c1=O (stereo unspecified) | < 3.70 | 5.01 | 
O=c1n(-c2ccccc2)c(=O)n2n1C1C3C4C3C2C2(F)C4C12 (stereo unspecified) | < 3.70 | < 3.70 | 
COc1ccc2[nH]c3c(c2c1)[C@H]1CCC(C(C)(C)C)C[C@H]1[C@H]1C(=O)N(c2ccccc2)C(=O)[C@@H]31 (stereo partly specified) | < 5.10 | < 5.10 | 
CC1=C(C(=O)O)N2C(=O)[C@@H](NC(=O)C(c3ccc(O)cc3)N3CSC(=S)N(C(C)C)C3)C2SC1 (stereo partly specified) | < 3.32 | 3.57 | 
COc1c(O)c2c(c(O)c1C(C)C)C(=O)C(O)=C1C(C)(C)CCC[C@@]12C | < 3.92 | 4.79 | 
CC(=O)Oc1cc(OC(C)=O)c2c(=O)c(OC(C)=O)c(-c3ccc(OC(C)=O)c(OC(C)=O)c3)oc2c1 | < 3.70 | 5.03 | 
COc1ccc(N2C(=O)/C(=C/c3ccc(N(CCC#N)CCC#N)cc3)N=C2c2ccccc2)cc1 | < 3.70 | < 3.70 | 
O=C(Nc1ccc(C2=NCCN2)cc1)c1cccc(C(=O)Nc2ccc(C3=NCCN3)cc2)c1Cl | 4.31 | 3.81 | 

SMILES | pEC50 | pIC50 | outcome
CC1(C)CC2=NOS3=C2C(=NO3)C1c1ccccn1 (stereo unspecified) | < 3.70 | 4.02 | 
CCCCCCCCCCCCCCCCCCC1=C(O)C(=O)C=C(OC)C1=O | < 3.70 | 4.31 | 
COC(=O)[C@@]1(C)/C(=N/NS(=O)(=O)c2ccc(C)cc2)CCC[C@@H]1C | < 3.57 | 3.66 | 
Clc1ccc(/C=N/Nc2nnc3c(n2)[nH]c2ccccc23)cc1 | < 3.70 | < 3.70 | 
CC(C)(C)n1[nH]c(=O)n(C(C)(C)C)c1=O | < 3.70 | < 3.70 | 
Cc1ccc(C(=O)C(c2nc3n(c2O)C(=N)N=N3)c2nc3n(c2O)C(=N)N=N3)cc1 (stereo unspecified) | < 4.89 | < 4.89 | 
CC1CC(c2ccc([N+](=O)[O-])cc2)=Nc2ccccc2S1 (stereo unspecified) | < 5.04 | < 5.04 | 
Cn1c2c(c3ccccc31)CCN(CCCCN1CCN(c3ccccc3)CC1)C2=O | < 4.51 | < 4.51 | 
CC(C)SC1SCC2C(=O)N(C)C3(CC3C)C(=O)OCC(NC(=O)c3nc4ccccc4cc3O)C(=O)NC(C)C(=O)N(C)C1C(=O)N(C)C1(CC1C)C(=O)OCC(NC(=O)c1nc3ccccc3cc1O)C(=O)NC(C)C(=O)N2C (stereo unspecified) | < 4.95 | 8.44 | 
C=CCNC(=O)ON1C(=O)CCC1=O | < 2.90 | < 2.90 | 
C=C1c2ccccc2N(S(=O)(=O)c2ccc(C)cc2)C12CCCCC2 | < 4.00 | 4.42 | 
O=C(N/N=C\c1ccc([N+](=O)[O-])cc1)c1ccccc1Nc1ccccc1C(=O)N/N=C/c1ccc([N+](=O)[O-])cc1 | 4.04 | < 3.70 | 
COCC#C[C@@]1(O)CCCCC1CC(OC)OC (stereo partly specified) | < 3.70 | 3.95 | 
CC1[C@@H](OCc2ccccc2)COC(=O)N1Cc1ccccc1 (stereo partly specified) | < 3.70 | 4.05 | 
ClC(Cl)=C(Cl)C1(Cl)CC1COCc1ccccc1 (stereo unspecified) | < 4.51 | 4.61 | 
COC(=O)c1ccccc1/C=C1\Cc2c(C)c3c(c(C)c2C1=O)CCC3 |  |  | inactive
c1ccc2c(c1)OCOc1ccccc1OCO2 |  |  | inactive
N#C/C(=C\c1ccccc1)c1ccccc1F | < 3.70 | 4.43 | 
O=[N+]([O-])c1cccc(C2=NN(c3ccccc3)C3c4cc(Br)ccc4OCC23)c1 (stereo unspecified) | < 4.94 | < 4.94 | 
CC12C=CC(=O)C=C1CCC1C3CCC(O)(C(=O)CO)C3(C)CC(O)C12F (stereo unspecified) |  |  | inactive

SMILES | pEC50 | pIC50 | outcome
Cc1cc(O)ccc1C1(c2ccc(O)cc2C)OS(=O)(=O)c2ccccc21 |  |  | inactive
C=CC(C1=CC(=O)C(OC)=CC1=O)c1ccc(OC)cc1 (stereo unspecified) |  |  | inactive
N#Cc1c(-c2ccccc2)c(-c2ccccc2)cc2c(=O)c3ccc(Cl)cc3[nH]c12 | < 4.48 | < 4.48 | 
COc1cc(C2(O)c3ccccc3C3=NCCN32)cc(OC)c1OC (stereo unspecified) | < 3.70 | < 3.70 | 
Cn1c2ccccc2n2c3ccccc3c3nnc(N)c-3c12 | < 3.70 | 4.55 | 
CC(=O)NNC(=S)/N=C\c1c(O)[nH]c(=O)[nH]c1=O | < 3.70 | < 3.70 | 
OCCN(CCO)c1cccc(N(CCO)CCO)n1 |  |  | inactive
C/C=C1\C=C(OC)CN(CCc2c[nH]c3ccccc23)C1 | < 3.80 | 4.30 | 
CCCCCCNC(=O)/C(=C/c1ccc(OC)cc1)NC(=O)c1ccccc1 | < 3.70 | 3.99 | 
CC(=Nc1ccc(N(C)C)cc1)c1ccccc1 | < 3.70 | 4.54 | 
COc1cc(C(=O)OC2CC(C)=CC[C@@]3(C)CC[C@](O)(C(C)C)C23)ccc1O (stereo partly specified) | < 3.70 | 5.07 | 
CC1(C)O[C@@H](CC/C=C/CO)[C@H](CC/C=C/CO)O1 |  |  | inactive
CC1(C)OOC(O)C=C1c1ccccc1 (stereo unspecified) | < 3.90 | < 3.90 | 
O=C(CC/C=C(/CS(=O)(=O)c1ccccc1)S(=O)(=O)c1ccccc1)c1ccccc1 | < 4.00 | < 4.00 | 
Cc1ccc(N2C(=O)CS/C2=C(\C#N)c2nc3ccccc3[nH]2)cc1 | < 3.70 | < 3.70 | 
CC(=O)NNc1nc(C)c(C(=O)/C=C/c2ccc(/C=C/C(=O)c3sc(NNC(C)=O)nc3C)cc2)s1 | < 4.31 | < 4.31 | 
COc1c(Cl)cc(C(=CCN[C@H]2CC[C@@]3(C)[C@@H](CC[C@@H]4[C@@H]3CC[C@]3(C)[C@@H]([C@H](C)CCCC(C)C)CC[C@@H]43)C2)c2cc(Cl)c(OC)c(C(=O)O)c2)cc1C(=O)O | < 4.30 | < 4.30 | 
CC(C)C1=CC2C3C(=O)NC(=O)C3C1C1C3C(=O)NC(=O)C3C21 (stereo unspecified) | < 3.10 | < 3.10 | 
CC(=O)C(=Cc1ccc(N(C)C)cc1)C(C)=O | < 3.25 | 3.95 | 
NC1=C(O)c2ccccc2C(=O)C1=O |  |  | inactive
